Laboratory results as given in ChEMBL document CHEMBL1201862, “PubChem BioAssay data set” (2004).
Several values for one entry are separate records, joined by “and”; a condition that tells them apart may be missing. Equal entries are not always repeated. Activity calls are given as the source filed them.

What was measured:
Paired box protein Pax-8 = Paired box protein Pax-8 (Homo sapiens, UniProt Q06710); experiment: PAX8 transcriptional activity inhibition in RMG-I – RMG-I cells, luciferase, cherry-pick, dose response (AID 687027); type: functional, cell-based;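 note: luciferase reporter driven by Pax8 target thyroperoxidase promoter measured by SteadyGlo luminescence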
[1] = loss of viability in HepG2 cells – cell-based, CellTiter-Glo, cherry-picked, cytotoxicity control for Shn3 inhibitor project, dose response (AID 624134); type: functional
[2] = target: DNA dC->dU-editing enzyme APOBEC-3A (Homo sapiens, UniProt P31941); experiment: A3A deaminase inhibition for selectivity – biochemical, dose response (AID 504722); type: functional
[3] = target: DNA dC->dU-editing enzyme APOBEC-3G (Homo sapiens, UniProt Q9HC16); experiment: Dose Response confirmation of small molecule APOBEC3G DNA Deaminase Inhibitors via a fluorescence-based single-stranded DNA deaminase assay. [Related pubchem assays (depositor defined):AID493012, AID493028]; type: functional
Caspase-6 = target: T1, Caspase-6 (Homo sapiens, UniProt P55212); experiment: inhibition of CASP6 peptide cleavage – biochemical, VEID-R110 fluorescence, cherry-pick, dose response (AID 720632)
T1 sequence (P55212 whole entry): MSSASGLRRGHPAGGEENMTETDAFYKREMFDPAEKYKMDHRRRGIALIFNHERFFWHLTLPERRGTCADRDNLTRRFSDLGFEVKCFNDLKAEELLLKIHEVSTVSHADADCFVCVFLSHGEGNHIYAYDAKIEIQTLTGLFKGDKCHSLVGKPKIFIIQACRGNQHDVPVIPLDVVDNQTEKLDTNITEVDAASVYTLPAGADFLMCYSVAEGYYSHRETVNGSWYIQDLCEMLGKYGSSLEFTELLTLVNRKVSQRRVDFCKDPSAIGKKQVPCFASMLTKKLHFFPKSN

Hexokinase HKDC1 = target: T2, Hexokinase HKDC1 (Homo sapiens, UniProt Q2TB90); experiment: inhibition of HKDC1 glucose phosphorylation – biochemical, W721R variant, dose response (AID 504729); type: functional
T2 sequence (Q2TB90 whole entry): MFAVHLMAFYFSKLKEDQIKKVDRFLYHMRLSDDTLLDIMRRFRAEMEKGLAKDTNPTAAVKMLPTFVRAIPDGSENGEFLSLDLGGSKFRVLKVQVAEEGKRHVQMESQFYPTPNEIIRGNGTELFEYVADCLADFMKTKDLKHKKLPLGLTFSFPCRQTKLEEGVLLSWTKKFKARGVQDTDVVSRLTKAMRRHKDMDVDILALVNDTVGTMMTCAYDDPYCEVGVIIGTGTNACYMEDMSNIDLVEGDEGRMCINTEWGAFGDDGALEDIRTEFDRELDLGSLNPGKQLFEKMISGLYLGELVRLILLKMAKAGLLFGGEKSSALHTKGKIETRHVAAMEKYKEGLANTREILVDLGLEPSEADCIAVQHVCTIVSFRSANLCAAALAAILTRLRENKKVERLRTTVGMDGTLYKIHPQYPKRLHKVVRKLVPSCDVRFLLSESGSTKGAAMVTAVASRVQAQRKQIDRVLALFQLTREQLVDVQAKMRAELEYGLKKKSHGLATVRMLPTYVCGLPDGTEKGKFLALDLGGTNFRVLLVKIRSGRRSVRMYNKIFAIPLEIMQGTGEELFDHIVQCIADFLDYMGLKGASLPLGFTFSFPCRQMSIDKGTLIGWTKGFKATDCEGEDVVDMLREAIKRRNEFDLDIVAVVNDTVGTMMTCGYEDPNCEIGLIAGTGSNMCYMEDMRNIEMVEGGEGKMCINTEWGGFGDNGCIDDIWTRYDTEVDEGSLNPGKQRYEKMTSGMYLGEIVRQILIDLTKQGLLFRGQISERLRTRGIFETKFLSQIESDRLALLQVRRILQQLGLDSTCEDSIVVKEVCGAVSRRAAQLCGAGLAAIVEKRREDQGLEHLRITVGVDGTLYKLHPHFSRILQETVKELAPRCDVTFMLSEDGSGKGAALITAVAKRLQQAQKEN

[4] = non-specific 3'UTR reporter inhibition in Clone20-Shn3RL – cell-based, Renilla luciferase, cherry-picked, counter-screen for Shn3 inhibitor project, dose response (AID 624133); type: functional
[5] = target: T3, Mannose-6-phosphate isomerase (Homo sapiens, UniProt P34949); experiment: MPI inhibition at elevated mannose 6-phosphate – biochemical, fluorescence intensity, high mannose 6-phosphate, primary screen (AID 1220)
T3 sequence (P34949 whole entry): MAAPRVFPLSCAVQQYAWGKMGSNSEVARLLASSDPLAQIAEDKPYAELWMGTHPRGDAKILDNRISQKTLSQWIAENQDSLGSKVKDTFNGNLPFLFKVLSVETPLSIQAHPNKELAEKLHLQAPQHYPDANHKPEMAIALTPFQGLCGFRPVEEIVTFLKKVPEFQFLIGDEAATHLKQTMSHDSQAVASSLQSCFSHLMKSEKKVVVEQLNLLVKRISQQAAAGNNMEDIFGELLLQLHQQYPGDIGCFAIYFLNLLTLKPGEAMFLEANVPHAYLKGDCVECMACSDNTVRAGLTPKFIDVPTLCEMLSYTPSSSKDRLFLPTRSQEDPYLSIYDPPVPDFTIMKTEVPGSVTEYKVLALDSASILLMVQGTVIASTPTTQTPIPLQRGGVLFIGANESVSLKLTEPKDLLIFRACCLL

[6] = reduction of Shn3 3'UTR-driven luciferase in osteoblasts – cell-based, Clone20 osteoblasts, firefly luciferase, cherry-picked, dose response (AID 624132); type: functional;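 note: firefly luciferase luminescence from reporter carrying the Shn3 3'UTR in osteoblasts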
[7] = target: Glucose-6-phosphate 1-dehydrogenase (Homo sapiens, UniProt P11413); experiment: inhibition of Homo sapiens G6PD, dose series – biochemical, fluorescence, selectivity assay for P. falciparum G6PD inhibitor project, dose response (AID 504792); type: functional
[8] = reduced cellular PGC1a acetyl-lysine signal – cell-based, cherry-picked samples, dose response (AID 720514); type: functional;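 note: potency may reflect raised or lowered acetylation signal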
[9] = target: DNA damage-inducible transcript 3 protein (Mus musculus, UniProt P35639); type: functional, Cricetulus griseus
[10] = target: Induced myeloid leukemia cell differentiation protein Mcl-1 (Homo sapiens, UniProt Q07820); type: functional
[11] = target: T4, Aryl hydrocarbon receptor (Homo sapiens, UniProt P35869); experiment: Luminescence-based cell-based high throughput dose response assay for activators of the Aryl Hydrocarbon Receptor (AHR). [Related pubchem assays: 2796 (Primary screen (AHR activators in singlicate)), 2845 (Confirmation screen (AHR activators in triplicate)), 434939 (Counterscreen (PXR activators in triplicate)), 2804 (Summary (AHR activators))]; type: ADME
T4 sequence (P35869 whole entry): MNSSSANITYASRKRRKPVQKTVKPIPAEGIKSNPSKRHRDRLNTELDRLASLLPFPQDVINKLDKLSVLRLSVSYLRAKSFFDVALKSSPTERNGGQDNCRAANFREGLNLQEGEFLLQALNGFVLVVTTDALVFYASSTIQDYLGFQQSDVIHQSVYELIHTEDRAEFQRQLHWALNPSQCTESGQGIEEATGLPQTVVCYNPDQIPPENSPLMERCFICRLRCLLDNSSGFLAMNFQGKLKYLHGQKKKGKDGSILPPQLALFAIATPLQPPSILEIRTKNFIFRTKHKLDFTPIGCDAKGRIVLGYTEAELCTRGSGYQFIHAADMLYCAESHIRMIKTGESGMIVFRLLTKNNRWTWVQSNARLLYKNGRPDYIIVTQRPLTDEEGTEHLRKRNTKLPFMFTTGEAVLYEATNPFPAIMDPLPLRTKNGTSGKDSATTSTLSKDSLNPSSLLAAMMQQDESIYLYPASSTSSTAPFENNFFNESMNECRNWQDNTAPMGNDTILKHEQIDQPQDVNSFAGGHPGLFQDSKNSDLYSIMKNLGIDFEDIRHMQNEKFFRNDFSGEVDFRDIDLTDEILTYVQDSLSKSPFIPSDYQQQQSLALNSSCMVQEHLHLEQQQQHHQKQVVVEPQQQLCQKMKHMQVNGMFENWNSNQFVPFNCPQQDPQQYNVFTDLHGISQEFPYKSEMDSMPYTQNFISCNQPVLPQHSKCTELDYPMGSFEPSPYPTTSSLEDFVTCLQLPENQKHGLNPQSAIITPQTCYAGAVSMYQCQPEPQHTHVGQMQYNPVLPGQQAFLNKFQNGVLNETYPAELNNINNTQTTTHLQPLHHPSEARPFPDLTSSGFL

CAAX prenyl protease 2 = target: T5, CAAX prenyl protease 2 (Saccharomyces cerevisiae S288c, UniProt Q03530); type: biochemical
T5 sequence (Q03530 whole entry): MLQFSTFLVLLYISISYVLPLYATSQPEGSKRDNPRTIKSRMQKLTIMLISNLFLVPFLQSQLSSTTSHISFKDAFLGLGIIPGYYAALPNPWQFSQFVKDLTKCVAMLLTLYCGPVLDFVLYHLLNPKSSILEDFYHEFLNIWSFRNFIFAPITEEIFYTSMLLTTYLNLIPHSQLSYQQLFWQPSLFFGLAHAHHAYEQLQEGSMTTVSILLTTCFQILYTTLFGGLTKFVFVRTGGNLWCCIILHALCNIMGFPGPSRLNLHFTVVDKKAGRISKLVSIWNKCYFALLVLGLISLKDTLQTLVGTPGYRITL

Trypsin = Trypsin (Sus scrofa, UniProt P00761); experiment: trypsin protease activity blockade – biochemical, quenched peptide fluorescence, cherry-pick, selectivity assay for Rce1 protease inhibitor project, dose response (AID 488789)
cells = type: functional
[12] = THP-1 cell cytotoxicity, dose response, cytotoxicity control for non-replicating M. tuberculosis project (AID 489025); type: functional
[13] = target: T6, Type-1 angiotensin II receptor (Homo sapiens, UniProt P30556); experiment: antagonism of angiotensin II type 1 receptor – cell-based, uHTS hits, selectivity assay for APJ receptor antagonist project, dose response (AID 463214); type: functional;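 note: antagonist potency against angiotensin II stimulated AT1 response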
T6 sequence (P30556 whole entry): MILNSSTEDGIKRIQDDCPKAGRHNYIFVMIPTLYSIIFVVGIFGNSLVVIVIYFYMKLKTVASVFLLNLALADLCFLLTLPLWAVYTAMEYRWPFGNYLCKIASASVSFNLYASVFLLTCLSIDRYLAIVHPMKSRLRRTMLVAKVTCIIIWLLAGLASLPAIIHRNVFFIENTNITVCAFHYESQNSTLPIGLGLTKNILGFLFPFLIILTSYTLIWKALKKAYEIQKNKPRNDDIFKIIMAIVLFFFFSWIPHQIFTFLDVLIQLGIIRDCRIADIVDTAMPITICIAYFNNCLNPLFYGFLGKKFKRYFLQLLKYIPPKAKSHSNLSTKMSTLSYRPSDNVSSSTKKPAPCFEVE

[14] = Trypanosoma cruzi growth suppression in host cells – NIH3T3 host cells, beta-gal luminescence, confirmation (AID 2044); type: functional, cell-based;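 note: intracellular parasites grown in NIH/3T3 mouse fibroblasts as host cells; luminescent beta-galactosidase reporter signal from transgenic T. cruzi replicating inside host cells; inhibitors lower the luminescence signal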
Beta-galactosidase = Beta-galactosidase (Escherichia coli, UniProt Q8VNN2); experiment: PubChem AID 485352; type: functional
[15] = HepG2 cell cytotoxicity, dose response, cytotoxicity control for non-replicating M. tuberculosis project (AID 489018); type: functional; conditions: Mycobacterium tuberculosis
[16] = NIH3T3 cell viability loss – ATP luminescence, mouse fibroblasts, counter-screen, dose response (AID 2010); type: functional, cell-based;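 note: cells exposed to compound for about 90 hours before reading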
[17] = Vero E6 cell cytotoxicity, dose response, cytotoxicity control for non-replicating M. tuberculosis project, secondary assay (AID 492998); type: functional, VeroE6; conditions: Vero C1008
Streptococcus = experiment: GAS UMAA2166 growth inhibition – luminescence, BacTiterGlo, counter-screen for streptokinase expression inhibitor project, dose response (AID 1915); type: functional, organism-based;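 note: potency for reduction of bacterial viability or growth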
[18] = test system: Streptococcus sp. 'group A'; experiment: Streptococcus pyogenes SK(-)GAS viability under kanamycin – luminescence, BacTiterGlo, confirmation, counter-screen for streptokinase expression inhibitor project, dose response (AID 1900); type: functional, organism-based
[19] = target: T7, Ubiquitin-conjugating enzyme E2 N (Homo sapiens, UniProt P61088); type: functional
T7 sequence (P61088 whole entry): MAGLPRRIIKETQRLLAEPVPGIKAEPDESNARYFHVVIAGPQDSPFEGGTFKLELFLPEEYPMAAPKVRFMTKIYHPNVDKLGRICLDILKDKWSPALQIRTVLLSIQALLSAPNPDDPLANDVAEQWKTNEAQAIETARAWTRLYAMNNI

[20] = target: T7, Ubiquitin-conjugating enzyme E2 N; type: functional; remark: listed apart in the source
Bcl-2-related protein A1 = target: T8, Bcl-2-related protein A1 (Mus musculus, UniProt Q07440); type: functional;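 note: confirmatory dose–response counterscreen on Bfl-1, used to check hits from a UBC13 polyubiquitin inhibitor campaign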
T8 sequence (Q07440 whole entry): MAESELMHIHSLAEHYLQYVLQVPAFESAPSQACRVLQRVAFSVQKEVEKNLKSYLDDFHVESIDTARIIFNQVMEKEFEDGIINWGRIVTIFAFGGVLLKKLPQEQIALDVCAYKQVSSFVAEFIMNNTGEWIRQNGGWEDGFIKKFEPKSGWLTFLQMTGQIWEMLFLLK

Chain of DNA damage-inducible transcript 3 protein (P35639 whole entry): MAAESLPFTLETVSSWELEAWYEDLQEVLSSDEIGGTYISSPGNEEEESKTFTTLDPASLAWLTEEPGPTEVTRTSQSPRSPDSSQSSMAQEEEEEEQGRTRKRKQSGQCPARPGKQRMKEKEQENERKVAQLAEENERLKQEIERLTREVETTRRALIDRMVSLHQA
Chain of Induced myeloid leukemia cell differentiation protein Mcl-1 (Q07820 whole entry): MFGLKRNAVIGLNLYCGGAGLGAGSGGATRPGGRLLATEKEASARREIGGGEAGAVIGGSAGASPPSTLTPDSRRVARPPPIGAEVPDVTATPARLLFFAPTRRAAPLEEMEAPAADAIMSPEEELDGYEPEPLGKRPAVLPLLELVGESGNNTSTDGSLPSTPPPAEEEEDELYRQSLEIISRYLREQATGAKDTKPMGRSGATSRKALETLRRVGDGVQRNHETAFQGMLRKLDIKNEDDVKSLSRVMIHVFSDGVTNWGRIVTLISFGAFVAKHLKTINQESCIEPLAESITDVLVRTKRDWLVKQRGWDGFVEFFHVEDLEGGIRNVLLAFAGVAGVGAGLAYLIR
Chain of Glucose-6-phosphate 1-dehydrogenase (P11413 whole entry): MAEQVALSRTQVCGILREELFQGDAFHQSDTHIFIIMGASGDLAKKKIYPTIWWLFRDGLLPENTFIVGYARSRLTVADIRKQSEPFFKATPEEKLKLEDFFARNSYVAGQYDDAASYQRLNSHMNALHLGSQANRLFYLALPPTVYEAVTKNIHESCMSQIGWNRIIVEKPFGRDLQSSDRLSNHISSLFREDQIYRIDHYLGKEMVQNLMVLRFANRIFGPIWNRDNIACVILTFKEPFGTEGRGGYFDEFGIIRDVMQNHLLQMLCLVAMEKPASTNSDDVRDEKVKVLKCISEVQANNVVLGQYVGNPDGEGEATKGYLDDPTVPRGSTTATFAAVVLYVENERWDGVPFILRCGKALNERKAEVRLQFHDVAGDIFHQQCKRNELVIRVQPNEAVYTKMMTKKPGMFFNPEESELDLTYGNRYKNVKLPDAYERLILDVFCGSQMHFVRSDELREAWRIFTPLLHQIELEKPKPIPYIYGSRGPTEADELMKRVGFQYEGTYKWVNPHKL
Chain of Paired box protein Pax-8 (Q06710 whole entry): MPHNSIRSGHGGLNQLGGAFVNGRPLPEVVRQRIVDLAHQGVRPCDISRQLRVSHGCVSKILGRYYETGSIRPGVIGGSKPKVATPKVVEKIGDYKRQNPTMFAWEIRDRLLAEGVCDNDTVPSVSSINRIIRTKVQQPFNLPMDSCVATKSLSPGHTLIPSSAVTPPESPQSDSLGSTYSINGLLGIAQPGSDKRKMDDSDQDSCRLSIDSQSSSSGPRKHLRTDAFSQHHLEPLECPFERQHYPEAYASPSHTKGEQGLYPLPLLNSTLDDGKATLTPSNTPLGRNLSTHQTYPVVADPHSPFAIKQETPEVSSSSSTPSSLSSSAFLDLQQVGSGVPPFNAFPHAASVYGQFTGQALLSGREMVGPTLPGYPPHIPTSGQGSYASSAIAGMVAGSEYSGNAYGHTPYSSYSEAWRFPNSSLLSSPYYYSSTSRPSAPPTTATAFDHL
Chain of Trypsin (P00761 whole entry): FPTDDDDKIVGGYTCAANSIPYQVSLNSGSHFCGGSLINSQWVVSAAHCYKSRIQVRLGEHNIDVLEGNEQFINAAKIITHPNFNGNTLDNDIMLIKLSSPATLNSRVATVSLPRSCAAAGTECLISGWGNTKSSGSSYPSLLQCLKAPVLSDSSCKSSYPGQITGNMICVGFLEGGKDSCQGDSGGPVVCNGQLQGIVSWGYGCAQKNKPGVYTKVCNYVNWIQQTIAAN
Chain of DNA dC->dU-editing enzyme APOBEC-3A (P31941 whole entry): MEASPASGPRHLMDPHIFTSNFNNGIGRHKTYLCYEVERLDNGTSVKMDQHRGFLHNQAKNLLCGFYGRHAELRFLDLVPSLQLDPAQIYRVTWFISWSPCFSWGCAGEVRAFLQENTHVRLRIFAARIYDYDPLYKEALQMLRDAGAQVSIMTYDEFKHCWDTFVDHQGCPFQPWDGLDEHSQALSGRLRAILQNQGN
Chain of DNA dC->dU-editing enzyme APOBEC-3G (Q9HC16 whole entry): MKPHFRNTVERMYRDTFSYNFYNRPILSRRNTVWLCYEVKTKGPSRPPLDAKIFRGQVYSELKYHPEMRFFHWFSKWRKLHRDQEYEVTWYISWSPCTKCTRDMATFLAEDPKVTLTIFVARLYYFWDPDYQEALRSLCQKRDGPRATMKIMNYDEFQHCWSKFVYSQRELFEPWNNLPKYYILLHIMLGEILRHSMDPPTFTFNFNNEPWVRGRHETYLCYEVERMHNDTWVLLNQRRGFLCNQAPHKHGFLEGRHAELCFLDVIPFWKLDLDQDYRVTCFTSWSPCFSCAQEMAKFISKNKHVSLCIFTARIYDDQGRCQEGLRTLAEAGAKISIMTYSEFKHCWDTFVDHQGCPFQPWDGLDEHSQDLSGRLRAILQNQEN
Chain of Beta-galactosidase (Q8VNN2 whole entry): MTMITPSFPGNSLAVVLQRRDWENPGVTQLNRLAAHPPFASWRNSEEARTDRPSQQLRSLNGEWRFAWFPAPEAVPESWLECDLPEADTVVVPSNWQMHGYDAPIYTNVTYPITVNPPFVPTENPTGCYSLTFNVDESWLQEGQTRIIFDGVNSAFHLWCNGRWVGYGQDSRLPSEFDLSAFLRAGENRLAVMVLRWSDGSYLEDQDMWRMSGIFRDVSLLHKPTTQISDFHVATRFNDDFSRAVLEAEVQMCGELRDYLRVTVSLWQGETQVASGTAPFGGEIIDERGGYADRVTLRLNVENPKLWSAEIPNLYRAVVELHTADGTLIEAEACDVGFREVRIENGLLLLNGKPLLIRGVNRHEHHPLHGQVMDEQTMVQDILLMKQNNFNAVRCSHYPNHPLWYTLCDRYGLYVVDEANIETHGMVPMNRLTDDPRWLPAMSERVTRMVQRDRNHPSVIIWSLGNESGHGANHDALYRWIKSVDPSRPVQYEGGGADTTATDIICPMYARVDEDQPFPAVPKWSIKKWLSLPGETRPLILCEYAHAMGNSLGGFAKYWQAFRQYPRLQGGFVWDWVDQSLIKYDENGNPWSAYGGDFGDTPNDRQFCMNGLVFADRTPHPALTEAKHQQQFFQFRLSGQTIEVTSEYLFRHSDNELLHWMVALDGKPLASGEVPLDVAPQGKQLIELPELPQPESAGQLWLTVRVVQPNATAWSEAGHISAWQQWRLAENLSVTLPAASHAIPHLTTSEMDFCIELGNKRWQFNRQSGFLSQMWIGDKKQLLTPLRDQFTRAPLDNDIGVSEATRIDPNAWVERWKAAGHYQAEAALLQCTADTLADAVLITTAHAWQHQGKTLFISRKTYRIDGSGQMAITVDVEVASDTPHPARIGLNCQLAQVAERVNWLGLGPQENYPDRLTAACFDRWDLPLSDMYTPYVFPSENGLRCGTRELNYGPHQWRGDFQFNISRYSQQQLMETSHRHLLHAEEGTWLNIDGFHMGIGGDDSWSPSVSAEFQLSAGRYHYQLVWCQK

O=S(=O)(Nc1cc(Sc2nc[nH]n2)c(O)c2ccccc12)c1ccccc1
AC50 (Paired box protein Pax-8): 9.52 µM (active)
AC50 [1]: 26.1 µM (active)
IC50 [2]: > 100 µM (inactive)
IC50 [3]: 3.16 µM (active)
AC50 (Caspase-6): 0.911 µM (active)
IC50 (Hexokinase HKDC1): 9.93 µM (active)
AC50 [4]: 12.4 µM (active)
IC50 [5]: 3.32 µM (active)
AC50 [6]: 7.55 µM (active)
IC50 [7]: 21.1 µM (inactive)
AC50 [8]: 9.88 µM (active)
Absolute IC50 (CHOP) [9]: 10 µM
IC50 [10]: 11.7 µM (active)

CCOC(=O)Cc1cc(-c2ccc(O)cc2)nc2ccc3ccccc3c12
EC50 [11]: 1.47 µM (active)
Absolute IC50 (CHOP) [9]: 10 µM

c1ccc(-n2nnnc2SCc2cn3cccnc3n2)cc1
AC50 (CAAX prenyl protease 2): 10.5 µM (active)
AC50 (Trypsin): 18.6 µM (active)

N=C1S/C(=C\c2ccco2)C(=O)N1c1nccs1
IC50 (cells): 0.2 µM (active)
CC50 [12]: 15.7 µM (active)
IC50 [13]: 7.86 µM (active)
EC50 [14]: 2.11 µM (active)
EC50 (Beta-galactosidase): > 40 µM (inactive)
CC50 [15]: > 20 µM (active)
EC50 [16]: > 30 µM (not active)
CC50 [17]: 9.33 µM (active)
EC50 (Streptococcus): 9.61 µM (active)
EC50 [18]: 3.66 µM (active)

C[C@@H]1O[C@@H](O[C@H]2[C@H](Oc3cc(O)c4c(c3)O[C@H](c3ccc(O)cc3)CC4=O)O[C@H](CO)[C@@H](O)[C@@H]2O)[C@H](O)[C@H](O)[C@H]1O [NARINGIN]
IC50 [19]: 12.2 µM (active) and 8.7 µM (active)
IC50 [20]: 5.77 µM (active) and 6.66 µM (active)
IC50 (Bcl-2-related protein A1): > 20 µM (inactive)
